Legend:
[1] = system: p21 gene; assay: p21 mRNA expression by RT-qPCR in Ku-7-LG cells; assay type: cell-based, human; conditions: 10 nM
Method: (§1) Ku-7-LG and T24 cells were transfected with the indicated saRNA at a final concentration of 10 nM for 3 days. After transfection, the RNA was extracted with the Qiagen RNeasy kit. After reverse transcription, the ABI 7500 fast real-time PCR system was used for qPCR amplification. The GAPDH gene was amplified as an internal reference. […] Dashed line indicates duplex Rag1-40 with no chemical modification in comparison, and the values above the line indicate stronger activity. The control was blank transfection without oligonucleotide. dsCon2 is transfected with a double-stranded scramble RNA. The value of the ordinate represents the mean±SD of 2 repeated treatments.
(§2) The control and dsCon2 were blank transfection and scramble dsRNA transfection, respectively. The values in the ordinate represent the mean±SD of 2 repeated treatments.
(§3) Human bladder cancer cells Ku-7-LG (ATCC), J82 (ATCC) and T24 (ATCC) were cultured in McCoy medium (Gibco) comprising 10% calf serum (Sigma-Aldrich) and 1% penicillin/Streptomycin (Gibco). Cells were cultured at 37° C. under 5% CO2. Ku-7-LG, J82 and T24 cells were plated into 12-well plates at 10×10^4 cells per well, transfected with the small RNA at a concentration of 10 nM (unless otherwise specified) for three days, using RNAiMax (Invitrogen, Carlsbad, CA) according to the manufacturer's instructions. Two replicate wells were set for each treatment.
(§4) After transfection, the medium was discarded and to each well 500 μl cell lysate was added and incubated at room temperature for 5 minutes. RNA was extracted with the Qiagen RNeasy kit, and after reverse transcription, qPCR analysis was performed on the ABI 7500 Fast Real-time PCR system (Applied Biosystems). Each sample was amplified in 3 replicate wells.
(§5) The PCR reaction conditions are: 95° C. for 30 seconds, 95° C. for 5 seconds, 60° C. for 30 seconds, and 40 cycles of amplification. The GAPDH gene was amplified as an internal reference at the same time. p21 was amplified with the p21F1/R1 primer pair, and the specific sequences of the amplification primers are shown in Table 1.
(§6) In order to calculate the expression value (Erel) of p21 (target gene) of a saRNA transfection sample relative to the control treatment, Formula 1 is used to input the Ct values of the target gene and the internal reference gene for calculation.
(§7) wherein, CtTm is the Ct value of the target gene from the control treatment sample; CtTs is the Ct value of the target gene from the saRNA treated sample; CtRm is the Ct value of the internal reference gene from the control treatment sample; and CtRs is the Ct value of the internal reference gene from the saRNA treated sample.
(§8) The main purpose of introducing chemical modifications to regulatory oligonucleotides of a gene is to improve their pharmaceutical properties, including enhancing in vivo stability and mitigating off-target effects (e.g., sequence-dependent targeting of unrelated genes, sequence-dependent or independent immune stimulation), while maintaining their gene regulatory capacity (gene knockdown or activation). To assess the effect of chemical modification on the RNAa activity of saRNA on the p21 gene, 10 nM unmodified (Rag1-40) and modified (Rag1-40-1 to Rag1-40-34) duplexes were transfected into Ku-7-LG and T24 cells, respectively. After 72 hours, the mRNA expression level of p21 was assessed by RT-qPCR. All duplexes induced p21 mRNA expression in all […] at least double that of the control.
(§9) In order to further evaluate the expression level of p21 mRNA after the different durations of treatment by the chemically modified saRNA duplexes, two saRNAs (RAG1-40-31 and RAG1-40-53) were randomly selected from the above chemically modified saRNA duplexes for detection. RAG1-40-31 and RAG1-40-53 were transfected into Ku-7-LG and T24 cells at a final concentration of 10 nM, for 1, 2, 3, 4, 7 and 9 days, respectively. Each treatment was set up in duplicate. […]

[2] = system: p21 gene; assay: p21 mRNA expression by RT-qPCR in T24 cells; assay type: cell-based, human; conditions: 10 nM
Method: as §1, §2, §3, §4, §5, §6, §7, §8, §9

[3] = system: Rag1-40 target sequence in the 3′ UTR of firefly luciferase, COS-1 cells

With “RAG1-40-31: saRNA duplex: sense fCfCAACUCAUUCUCCAAG*U*C (SEQ ID NO 16); antisense U*A*fCfUfUGGAGAAfUGAGfUfUGG*fC*A (SEQ ID NO 12) (sense CCAACUCAUUCUCCAAGUC; antisense UACUUGGAGAAUGAGUUGGCA; 2'-F and phosphorothioate modifications; modified_base (1)..(2) (1,2)=2′-fluoro; modified_base (17)..(19) (17,18,19)=phosphorothioate (PS) backbone modification; modified_base (2)..(21) (2,3,19,20,21)=phosphorothioate (PS) backbone modification; modified_base (3)..(20) (3,4,5,12,16,17,20)=2′-fluoro)” the “increase of expression level of p21 mRNA compared with the control group” value (from here on “increase of expression level of p21 mRNA”) ([1]; 1 day) was 1.3 fold, the “increase of expression level of p21 mRNA” value ([1]; 2 days) was 11.4 fold and the “increase of expression level of p21 mRNA” value ([1]; 3 days) was 8.7 fold. For the same substance, the “increase of expression level of p21 mRNA” value ([1]; 4 days) was 6.1 fold, the “increase of expression level of p21 mRNA” value ([1]; 7 days) was 2.6 fold and the “increase of expression level of p21 mRNA” value ([1]; 9 days) was 3.8 fold. For the same substance, the “increase of expression level of p21 mRNA” value ([2]; 1 day) was 2.1 fold, the “increase of expression level of p21 mRNA” value ([2]; 2 days) was 3.7 fold and the “increase of expression level of p21 mRNA” value ([2]; 3 days) was 4.7 fold. For the same substance, the “RNA activation activity (p21 mRNA), in words” value ([2]; 72 hours, compared with unmodified Rag1-40 unless worded otherwise) was “reduced activity”, the “increase of expression level of p21 mRNA” value ([2]; 4 days) was 3.3 fold and the “increase of expression level of p21 mRNA” value ([2]; 7 days) was 1.2 fold. The “increase of expression level of p21 mRNA” value ([2]; 9 days) was 1.3 fold and the “off-target effect compared to unmodified Rag1-40, in words” value [3] was “mitigated or similar off-target effects”.
